Experimental data taken from patent US8551984B2, “Aminopyrimidines as SYK inhibitors” (Merck Sharp & Dohme Corp., priority 2009, dated 2013).
pIC50: −log10 of the molar value.

Target: recombinant human SYK (GST-hSYK fusion protein) (Homo sapiens, UniProt P43405)
Assay: biochemical
[1] = rhSYK Activity (IC50), recombinant human GST-SYK 5 pM, ATP 25 μM, biotinylated substrate peptide 250 nM, HTRF, 10-dose titration

Description: Homogeneous Time-Resolved Fluorescence (HTRF) Assay for the Recombinant Human SYK Enzyme:

Cc1cc(Nc2nccc(C(F)(F)F)n2)cc(-c2cnc(C3(O)CCCN(C(=O)Cc4n[nH]c(=O)[nH]4)CC3)s2)c1 (centres unmarked) [Example 54D-93]
pIC50 (rhSYK Activity, Table 54D): > 7.00

CCOC(=O)C(C)NC(=O)NCc1ncc(-c2cc(C)cc(Nc3nccc(C(F)(F)F)n3)c2)s1 (centres unmarked) [Example 88A-64]
pIC50 [1]: > 7.00

Cc1cc(Nc2nccc(C(F)(F)F)n2)cc(-c2cnc(CBr)s2)c1 [Example 90, N-{3-[2-(bromomethyl)-1,3-thiazol-5-yl]-5-methylphenyl}-4-(trifluoromethyl)pyrimidin-2-amine]
pIC50 [1]: > 7.00

Cc1cc(Nc2ncc(F)c(C3CC3)n2)cc(-c2cnc(C3(O)CCC(C(=O)O)C(C)(C)C3)s2)c1 (centres unmarked) [Example 33A-40]
pIC50 (rhSYK Activity, Table 33-A): > 7.00

COCC(=O)N1CCCC(O)(c2ncc(-c3cc(C)cc(Nc4nccc(C(F)(F)F)n4)c3)s2)CC1 (centres unmarked) [Example 54D-12]
pIC50 (rhSYK Activity, Table 54D): > 7.00

Cn1cc(-c2ncc(-c3cccc(Nc4nccc(C(F)(F)F)n4)c3)s2)cn1 [Example 21-4]
pIC50 (rhSYK Activity, Table 21): > 7.00

COc1ccnc(Nc2cc(C)cc(-c3cnc(C4(NC(=O)NC(N)=O)CCC4)s3)c2)n1 [65-2]
pIC50 (rhSYK Activity, Table 65): > 7.00

Cc1cc(Nc2nccc(C(F)(F)F)n2)cc(-c2cnc(C3(O)CC[C@H]4C(C(=O)O)[C@H]43)s2)c1 (some centres unmarked) [Example 33C-6]
pIC50 (rhSYK Activity, Table 33C): > 7.00

CCOC(=O)C1CC(C)C(O)(c2ncc(-c3cc(C)cc(Nc4nccc(C)n4)c3)s2)CC1C (centres unmarked) [Example 113B-11]
pIC50 (rhSYK Activity, Table 113B): 6.00 to 7.00

Cc1cc(Nc2nccc(C(F)(F)F)n2)cc(-c2cnc(C(=O)N3CCC(O)C3)s2)c1 (centres unmarked) [Example 87B-17]
pIC50 [1]: > 7.00

COc1nc(Nc2cc(C)cc(-c3cnc(C4(O)CCC(C(=O)O)C(C)(C)C4)s3)c2)ncc1F (centres unmarked) [116A-28]
pIC50 (rhSYK Activity, Table 116A): > 7.00

Cc1cc(Nc2nccc(C)n2)cc(-c2cnc(C3(O)CC(C)C(C(=O)O)CC3C)s2)c1 (centres unmarked) [Example 113B-3]
pIC50 (rhSYK Activity, Table 113B): > 7.00

Cc1cc(Nc2nccc(C(F)(F)F)n2)cc(-c2cnc(C3(O)CCC(C(=O)O)(c4ccccc4)CC3)s2)c1 (centres unmarked) [Example 33A-9]
pIC50 (rhSYK Activity, Table 33-A): > 7.00

Cc1cc(Nc2nccc(C(F)(F)F)n2)cc(-c2cnc(CNCCS(C)(=O)=O)s2)c1 [Example 88A-24]
pIC50 [1]: > 7.00

COC(=O)C1(NC(C)=O)CCC(O)(c2ncc(-c3cc(C)cc(Nc4nccc(C(F)(F)F)n4)c3)s2)CC1 (centres unmarked) [Example 33A-14]
pIC50 (rhSYK Activity, Table 33-A): > 7.00

COC(=O)[C@H]1CC[C@](O)(c2ncc(-c3cc(C)cc(Nc4nccc(C(C)(C)C)n4)c3)s2)CC1(C)C [Example 101-3]
pIC50 [1]: > 7.00

Cc1cc(Nc2nccc(C(F)(F)F)n2)cc(-c2cnc(C(=O)N3CCN(CC(F)(F)F)CC3)s2)c1 [Example 87B-15]
pIC50 [1]: 5.00 to 6.00

Cc1cc(Nc2nccc(OCCN3CCOCC3=O)n2)cc(-c2cnc(C3(O)CCC3)s2)c1 [Example 108A-3]
pIC50 (rhSYK Activity, Table 108A): > 7.00

CCOC(=O)C1CCC(O)(c2ncc(-c3cc(C)cc(Nc4nccc(C)n4)c3)s2)C(C)C1 (centres unmarked) [Example 113A-87]
pIC50 (rhSYK Activity, Table 113A): > 7.00

Cc1cc(Nc2nccc(C(F)(F)F)n2)cc(-c2cnc(-c3cnn(C(CCO)C(=O)O)c3)s2)c1 (centres unmarked) [Example 115-6]
pIC50 (rhSYK Activity, Table 115): > 7.00

Cc1cc(Nc2nccc(C(F)(F)F)n2)cc(-c2cnc(C3(O)CCN(C(=O)C4CCCOC4)CC3)s2)c1 (centres unmarked) [Example 54A-41]
pIC50 (RHSYK Activity, Table 54A): > 7.00

Cc1cc(Nc2nccc(C(C)C)n2)cc(-c2cnc([C@]3(O)CC[C@@H](C(=O)OC(C)(C)C)CC3)s2)c1 [Example 33A-29]
pIC50 (rhSYK Activity, Table 33-A): 6.00 to 7.00

CCOC(=O)CCc1ncc(-c2cc(C)cc(Nc3nccc(C(F)(F)F)n3)c2)s1 [Example 79-1, Ethyl 3-[5-(3-methyl-5-{[4-(trifluoromethyl)pyrimidin-2-yl]amino}phenyl)-1,3-thiazol-2-yl]-propanoate]
pIC50 [1]: > 7.00

Cc1cc(Nc2nccc(OCc3nccn3C)n2)cc(-c2cnc(C3(O)CCC3)s2)c1 [Example 108A-1]
pIC50 (rhSYK Activity, Table 108A): > 7.00

Cc1cc(Nc2nccc(C(F)(F)F)n2)cc(-c2cnc(C3(O)CCCN(C(=O)C(O)CO)CC3)s2)c1 (single isomer, unassigned) [Example 54D-28]
pIC50 (rhSYK Activity, Table 54D): > 7.00

CCCC(=O)Nc1cc(Nc2nccc(C(F)(F)F)n2)cc(-c2cnc(C3(O)CCC3)s2)c1 [Example 16-1]
pIC50 (rhSYK Activity, table of Examples 16-x): > 7.00

Cc1cc(Nc2nccc(C(F)(F)F)n2)cc(-c2cnc(C3(O)CCC(O)C4(CC4)C3)s2)c1 (centres unmarked) [Example 143(A), 7-[5-(3-methyl-5-{[4-(trifluoromethyl)pyrimidin-2-yl]amino}phenyl)-1,3-thiazol-2-yl]spiro[2.5]octane-4,7-diol]
pIC50 [1]: > 7.00

Cc1cc(Nc2nccc(C(F)(F)F)n2)cc(-c2cnc(C3(O)CCN(C(=O)CCO)CC3)s2)c1 [Example 54A-22]
pIC50 (RHSYK Activity, Table 54A): > 7.00

COC(=O)CCC(=O)N1CCCC(O)(c2ncc(-c3cc(C)cc(Nc4nccc(C(F)(F)F)n4)c3)s2)CC1 (centres unmarked) [Example 54D-72]
pIC50 (rhSYK Activity, Table 54D): > 7.00

CC(C)(c1ncc(-c2cc(Nc3nccc(C(F)(F)F)n3)cc(C(F)F)c2)s1)S(N)(=O)=O [74A-11]
pIC50 (rhSYK Activity, Table 74A): > 7.00

Cc1cc(Nc2nccc(C(F)(F)F)n2)cc(-c2cnc(C(C)(C)c3ccc(C(=O)O)cc3)s2)c1 [Example 113D-5]
pIC50 (rhSYK Activity, Table 113D, upper part): > 7.00

Cc1cc(Nc2nccc(OCCCO)n2)cc(-c2cnc(C3(O)CCC3)s2)c1 [Example 108A-35]
pIC50 (rhSYK Activity, Table 108A): > 7.00

CCOC(=O)C1(C)CCC(O)(c2ncc(-c3cc(C)cc(Nc4nccc(C(F)(F)F)n4)c3)s2)CC1 (centres unmarked) [Example 33A-11]
pIC50 (rhSYK Activity, Table 33-A): 6.00 to 7.00

CCC(=O)N1CCC(O)(c2ncc(-c3cc(C)cc(Nc4nccc(C(F)(F)F)n4)c3)s2)CC1 [Example 54A-4]
pIC50 (RHSYK Activity, Table 54A): > 7.00

COc1ccnc(Nc2cc(C)cc(-c3cnc(C4(N)CCC4)s3)c2)n1 [Example 62-2]
pIC50 (rhSYK Activity, Table 62): > 7.00

Cc1cc(Nc2nccc(OCCC3CN(C)CCO3)n2)cc(-c2cnc(C3(O)CCC3)s2)c1 (centres unmarked) [Example 108A-25]
pIC50 (rhSYK Activity, Table 108A): > 7.00

Cc1cc(Nc2nccc(C(F)(F)F)n2)cc(-c2cnc(C3=CC(=O)NCC3)s2)c1 [Example 10B-1]
pIC50 (rhSYK Activity, Table 10, Formula B): > 7.00

Cc1cc(Nc2nccc(C(F)(F)F)n2)cc(-c2cnc(C3(O)CCNC(=O)CC3O)s2)c1 (single isomer, unassigned) [161(B), [cis]-4,5-dihydroxy-5-[5-(3-methyl-5-{[4-(trifluoromethyl)pyrimidin-2-yl]amino}phenyl)-1,3-thiazol-2-yl]azepan-2-one]
pIC50 [1]: > 7.00

CC(=O)Nc1cc(Nc2nccc(OC3CCOCC3)n2)cc(-c2cnc(C3(O)CCC3)s2)c1 [Example 109-8]
pIC50 (rhSYK Activity, Table 109): > 7.00

COc1ccnc(Nc2cc(C)cc(-c3cnc(C4(O)CCNC4)s3)c2)n1 (centres unmarked) [54B-11]
pIC50 (rhSYK Activity, Table 54B): > 7.00

Cc1cc(Nc2nccc(C(F)(F)F)n2)cc(-c2cnc(C(C)(C)S(=O)(=O)NCC(=O)O)s2)c1 [74A-15]
pIC50 (rhSYK Activity, Table 74A): > 7.00

Cc1cc(Nc2nccc(C(F)(F)F)n2)cc(-c2cnc(C3(O)CCCN(C(N)=O)CC3)s2)c1 (single isomer, unassigned) [Example 54D-119]
pIC50 (rhSYK Activity, Table 54D): > 7.00

Cc1cc(Nc2nccc(C(F)(F)F)n2)cc(-c2cnc(C3(OCCO)CCNC(=O)CC3)s2)c1 (centres unmarked) [Example 127, 5-(2-hydroxyethoxy)-5-[5-(3-methyl-5-{[4-(trifluoromethyl)pyrimidin-2-yl]amino}phenyl)-1,3-thiazol-2-yl]azepan-2-one]
pIC50 [1]: > 7.00

CCOC(=O)CC(=O)N1CCCC(O)(c2ncc(-c3cc(C)cc(Nc4nccc(C(C)C)n4)c3)s2)CC1 (centres unmarked) [Example 54D-30]
pIC50 (rhSYK Activity, Table 54D): > 7.00

CS(=O)(=O)NC1(c2ncc(-c3cccc(Nc4nccc(C(F)(F)F)n4)c3)s2)COC1 [Example 61B-9]
pIC50 (rhSYK Activity, Table 61B): > 7.00

COc1ccnc(Nc2cc(C)cc(-c3cnc(C4(O)CCNCC4)s3)c2)n1 [Example 54A-20]
pIC50 (RHSYK Activity, Table 54A): > 7.00

CCOC(=O)C1CCC(O)(c2ncc(-c3cc(C)cc(Nc4nccc(C(C)(C)C)n4)c3)s2)CC1C (centres unmarked) [Example 101-1]
pIC50 [1]: > 7.00

Cc1cc(Nc2nccc(C(F)(F)F)n2)cc(-c2cnc(-c3ccsc3)s2)c1 [Example 114-6]
pIC50 [1]: 6.00 to 7.00

Cc1cc(Nc2nccc(OCc3cccnc3)n2)cc(-c2cnc(C3(O)CCC3)s2)c1 [Example 94A-2]
pIC50 [1]: > 7.00

Cc1cc(Nc2nccc(C(=O)N3CCOCC3)n2)cc(-c2cnc(C(C)(O)C(F)(F)F)s2)c1 (centres unmarked) [69-1]
pIC50 (rhSYK Activity, table after Example 69): 6.00 to 7.00

Cc1cc(Nc2nccc(C(F)(F)F)n2)cc(-c2cnc(C(=O)N3CCn4ccnc4C3)s2)c1 [Example 87B-9]
pIC50 [1]: > 7.00

CCC(CO)NCc1ncc(-c2cc(C)cc(Nc3nccc(C(F)(F)F)n3)c2)s1 (centres unmarked) [Example 88A-16]
pIC50 [1]: > 7.00

Cc1cc(Nc2nccc(C3CC3)n2)cc(-c2cnc(C3(NC(=O)NC(N)=O)CCC3)s2)c1 [65-4]
pIC50 (rhSYK Activity, Table 65): > 7.00

Cc1cc(Nc2nccc(C(F)(F)F)n2)cc(-c2cnc(CN3CCOC(CCO)C3)s2)c1 (centres unmarked) [Example 88B-11]
pIC50 [1]: > 7.00

Cc1cc(Nc2nccc(C(F)(F)F)n2)cc(-c2cnc(C3(C(N)=O)CC3)s2)c1 [Example 85B-3]
pIC50 [1]: > 7.00

CC(=O)c1ncc(-c2cc(Nc3nccc(C(F)(F)F)n3)cc(N3CCOCC3)c2)s1 [24-3]
pIC50 (rhSYK Activity, Table 24): > 7.00

COC(=O)[C@H]1CC[C@](O)(c2ncc(-c3cc(C)cc(Nc4nccc(C(C)C)n4)c3)s2)CC1(C)C [Example 101-2]
pIC50 [1]: > 7.00

Cc1cc(Nc2nccc(C(F)(F)F)n2)cc(-c2cnc([C@]3(O)CC[C@@H](NC(=O)Cc4ccccn4)CC3)s2)c1 [Example 54E-21]
pIC50 (rhSYK Activity, Table 54E): > 7.00

CC(O)(c1ncc(-c2cc(Nc3nccc(C(F)(F)F)n3)cc(N3CCOCC3)c2)s1)C1CC1 (centres unmarked) [24-6]
pIC50 (rhSYK Activity, Table 24): > 7.00

CCOC(=O)c1cccnc1N1CCC(O)(c2ncc(-c3cc(C)cc(Nc4nccc(C(F)(F)F)n4)c3)s2)CC1 [Example 33C-16]
pIC50 (rhSYK Activity, Table 33C): 6.00 to 7.00

Cc1cc(Nc2nccc(C(F)(F)F)n2)cc(-c2cnc(C3(O)CCN(C(=O)C4CC4)CC3)s2)c1 [Example 54A-11]
pIC50 (RHSYK Activity, Table 54A): > 7.00

CCOC(=O)C1CC(C)C(O)(c2ncc(-c3cc(C)cc(Nc4nccc(C(F)(F)F)n4)c3)s2)CC1C (centres unmarked) [Example 113B-17]
pIC50 (rhSYK Activity, Table 113B): > 7.00
